In patent publication US20240269128A1, “COMPOUNDS FOR TREATING OR PREVENTING ALZHEIMER'S DISEASE” (THE UNITED STATES OF AMERICA, as represented by the …, priority 2021, published 2024):

Tested on: BV-2 cells
Assay: Aβ1-42 clearance assay
Type: cell-based, mouse
Description: AB Clearance: For the amyloid beta (Aβ) clearance assay, 20000 BV-2 cells per well (uncoated 96 well plates) were plated out. After changing cells to treatment medium, drug compounds were administered 1 hour before Aβ stimulation (Bachem 4061966; final concentration in well: 200 ng/ml (dilutions in medium)). Cells treated with vehicle and cells treated with Aβ alone served as controls. After 3 h of Aβ stimulation, cell supernatants were collected for the Aβ measurement and cells were carefully washed twice with PBS and thereafter lysed in 35 μL cell lysis buffer (50 mM Tris-HCl, pH 7.4, 150 mM NaCl, 5 mM EDTA, 1% SDS) supplemented with protease inhibitors. Supernatants and cell lysates were analyzed for human Aβ42 with MSD® V-PLEX Human Aβ42 Peptide (6E10) Kit (K151LBE, Mesoscale Discovery). The immune assay was carried out according to the manual and plates were read on the MESO QuickPlex SQ 120.
Aβ1-42 clearance: For Abeta (Aβ1-42) clearance assay, 20,000 BV-2 cells per well (uncoated 96 well plates) were plated out. After changing cells to treatment medium, HCQ (0.25 μM, 2.5 μM and 25 μM) was applied 1 hour before Aβ1-42 stimulation (Bachem 4061966; final concentration in well: 200 ng/ml (dilutions in medium)). Cells treated with vehicle (0.1% DMSO) and cells treated with Aβ1-42 alone served as controls. After 3 h of Aβ1-42 stimulation, cell supernatants were collected for the Aβ1-42 measurement and cells were carefully washed twice with PBS and thereafter lysed in 35 μL cell lysis buffer (50 mM Tris-HCl, pH 7.4, 150 mM NaCl, 5 mM EDTA, 1% SDS) supplemented with protease inhibitors. Supernatants and cell lysates were analyzed for human Aβ1-42 with MSD® V-PLEX Human Aβ42 Peptide (6E10) Kit (K151LBE, Mesoscale Discovery). The immune assay was carried out according to the manufacturer's manual and plates were read on the MESO QuickPlex SQ 120.
Aβ Clearance: 20,000 BV2 cells per well (uncoated 96-well plates were plated out. After changing cells to treatment medium, drug compounds were administered 1 hour before Aβ stimulation (final concentration in well 200 ng/ml; dilutions in medium). Cells treated with vehicle and cells treated with Aβ alone served as controls. After 3 hours of Aβ stimulation, cell supernatants were collected for the Aβ measurement and cells were carefully washed twice with PBS and thereafter lysed in 35 μl of cell lysis buffer (50 mM tris-HCl, pH 7.4, 150 mM NaCl, 5 mM EDTA, and 1% SDS) supplemented with protease inhibitors. Supernatants and cell lysates were analyzed for human Aβ42 with the MSD V-PLEX Human Aβ42 Peptide (6E10) Kit (K151LBE, Mesoscale Discovery). The immune assay was carried out according to the manual, and plates were read on MESO QuickPlex SQ 120 (Meso Scale Diagnostics, Rockville, MD).
For Aβ clearance assay, 20,000 BV-2 cells per well (uncoated 96 well plates) were plated out. After 24 hours, medium was changed to treatment medium (DMEM, 5% FCS, 2 mM L-glutamine) and cells were maintained in treatment medium for the remaining culture period. After changing cells to treatment medium, the test items were administered 1 hour before Aβ stimulation (Bachem 4061966; final concentration in well: 200 ng/mL (dilutions in medium)). Cells treated with vehicle, cells treated with Aβ alone, as well as wells with Aβ but no cells served as controls. All wells were handled the same way. After 3 h of Aβ stimulation, cell supernatants were collected for the Aβ measurement and cells were carefully washed twice with PBS and thereafter lysed in 35 μl cell lysis buffer (50 mM Tris-HCl, pH 7.4, 150 mM NaCl, 5 mM EDTA, 1% SDS) supplemented with protease inhibitors. Cells were incubated for 15 min at RT on a plate shaker, samples were frozen at −80° C. until further use. The experiment was performed in n=6 technical replicates for all groups. […]

SMILES | Aβ1-42 clearance (25 μM) | Aβ1-42 in the supernatant (25 μM) | Aβ1-42 supernatant:lysate ratio (25 μM) | cell viability (25 μM) | effect in Aβ clearance (BV2 cells) (posterior probability of a protective effect, Bayesian dose-response model)
CCN(CCO)CCCC(C)Nc1ccnc2cc(Cl)ccc12 (centres unmarked) [HCQ, hydroxychloroquine] | increased | reduced | lowering | without adverse effects on cell viability | –
C[C@H](CCC(=O)NCCS(=O)(=O)O)[C@H]1CC[C@H]2[C@@H]3[C@@H](O)C[C@@H]4C[C@H](O)CC[C@]4(C)[C@H]3CC[C@]12C [TUDCA, tauroursodeoxycholic acid] | – | – | – | – | strongly protective
